Measured values published in the NIST ThermoML archive (doi:10.1016/j.jct.2016.12.023).

Test: mn = molality of the nth substance listed, in mol/kg
Details: 298.15 K, 101.33 kPa, Liquid, Vibrating tube method

OC[C@H]1O[C@@H]2O[C@H]3[C@H](O)[C@@H](O)[C@@H](O[C@H]4[C@H](O)[C@@H](O)[C@@H](O[C@H]5[C@H](O)[C@@H](O)[C@@H](O[C@H]6[C@H](O)[C@@H](O)[C@@H](O[C@H]7[C@H](O)[C@@H](O)[C@@H](O[C@H]1[C@H](O)[C@H]2O)O[C@@H]7CO)O[C@@H]6CO)O[C@@H]5CO)O[C@@H]4CO)O[C@@H]3CO [α-cyclodextrin] + O
Details | mass density [kg/m3]
m1 = 0.00975 | 1000.6
m1 = 0.01763 | 1003.4
m1 = 0.02931 | 1007.6
m1 = 0.03389 | 1009.2
m1 = 0.04348 | 1012.5
m1 = 0.05233 | 1015.6
m1 = 0.06207 | 1018.9
m1 = 0.07117 | 1022
m1 = 0.0783 | 1024.4
m1 = 0.09004 | 1028.3
m1 = 0.09733 | 1031
m1 = 0.09764 | 1030.7
m1 = 0.09915 | 1031.6
m1 = 0.09944 | 1031.7
m1 = 0.1001 | 1031.6
